Results from US20160257697A1, “THIOPHENE-SUBSTITUTED TETRACYCLIC COMPOUNDS AND METHODS OFUSE THEREOF FOR THE TREATMENT OF VIRAL DISEASES” (priority 2013, published 2016).
Read-outs that look alike come from different tables or passages of the source.

How the values were obtained:
Test in all cases: microbe, parasite or virus in culture
Type in all cases: cell-based, Hepatitis C virus (HCV)
Details in all cases: Replicon Assay A
[1] = tested on: HCV replicon 1A
Summary of the method: (§1)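 Read-out is replicon RNA per cell by real-time RT-PCR, normalised to cyclophilin mRNA amplified in the same well. Cells were exposed to compound for 3 days at 2000 cells/well in medium with 5% fetal bovine serum and 0.5% DMSO.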

[2] = tested on: HCV replicon 1AY93H
Summary of the method: as §1

[3] = tested on: HCV replicon 2B
Summary of the method: as §1

[4] = read-out: 1A Y93H IC50, replicon 1AY93H
[5] = Hepatitis C virus, HCV replicon 1A
[6] = read-out: 1A Y93H IC50, HCV replicon 1A Y93H
[7] = read-out: 2B IC50, HCV replicon 2B

Compound	IC50 ([1]; replicon 1A) [pM]	IC50 [2, 4] [nM]	IC50 ([3]; read-out: 2B IC50, replicon 2B) [nM]	IC50 [2, 6] [nM]	IC50 [3, 7] [nM]	other results
CCc1ccc(C2Oc3cc(-c4cnc([C@@H]5CCCN5C(=O)[C@@H](NC(=O)OC)C(C)C)[nH]4)cc(F)c3-c3cc4cc(-c5cnc([C@@H]6C[C@@H](F)CN6C(=O)C(NC(=O)OC)C6CCOC(C)(C)C6)[nH]5)ccc4n32)s1 (single isomer, unassigned) [Compound 254]	1.1	0.12	3.49			
COC(=O)N[C@H](C(=O)N1CCC[C@H]1c1ncc(-c2ccc3c(c2)OC(c2cc4ccccc4s2)n2c-3cc3cc(-c4cnc([C@@H]5C[C@@H](F)CN5C(=O)[C@@H](NC(=O)OC)C5CCOCC5)[nH]4)ccc32)[nH]1)C(C)C (single isomer, unassigned) [Compound 626]				0.013	0.179	IC50 [1, 5]: 2.09 pM
COC(=O)N[C@H](C(=O)N1CCC[C@H]1c1ncc(-c2cc(F)c3c(c2)OC(c2cc(C)c(C(C)C)s2)n2c-3cc3cc(-c4cnc([C@@H]5CCCN5C(=O)[C@@H](NC(=O)OC)C(C)C)[nH]4)ccc32)[nH]1)C(C)C (mixture of isomers) [Compound 64]						IC50 ([1]; Hepatitis C virus, replicon 1A): 4 pM; IC50 ([2]; Hepatitis C virus, read-out: 1A Y93H IC50 (nM), replicon 1AY93H): 0.15 nM; IC50 ([3]; Hepatitis C virus, read-out: 2B IC50 (nM), replicon 2B): 4.01 nM
[2H]C(C)(C)C(NC(=O)OC)C(=O)N1CCC[C@H]1c1ncc(-c2cc(F)c3c(c2)OC(c2ccc(C4CC4)s2)n2c-3cc3cc(-c4cnc([C@@H]5CCCN5C(=O)[C@@H](NC(=O)OC)C(C)C)[nH]4)ccc32)[nH]1 (single isomer, unassigned) [Compound 29]	2.4	1.32	1.98			
COC(=O)NC(C(=O)N1CCC[C@H]1c1ncc(-c2ccc3c(c2)cc2n3C(c3cc(C)c(C)s3)Oc3cc(-c4cnc([C@@H]5CCCN5C(=O)[C@@H](NC(=O)OC)C5CCOCC5)[nH]4)cc(F)c3-2)[nH]1)C(C)(C)F (single isomer, unassigned) [Compound 131]	7.8	3.83	9.78			
COC(=O)N[C@H](C(=O)N1C2CC2C[C@H]1c1ncc(-c2cc(F)c3c(c2)OC(c2ccc(C4CC4)s2)n2c-3cc3cc(-c4cnc([C@@H]5CCCN5C(=O)[C@@H](NC(=O)OC)C5C[C@@H](C)O[C@@H](C)C5)[nH]4)ccc32)[nH]1)C(C)C (single isomer, unassigned) [Compound 556]				0.251	0.976	IC50 ([1]; HCV replicon 1A): 51.2 pM
COC(=O)N[C@H](C(=O)N1C[C@H](F)C[C@H]1c1ncc(-c2ccc3c(c2)cc2n3C(c3cc4ccccc4s3)Oc3cc(-c4cnc([C@@H]5CCCN5C(=O)[C@@H](NC(=O)OC)C5CCOCC5)[nH]4)ccc3-2)[nH]1)C(C)C (single isomer, unassigned) [Compound 624]				0.494	0.418	IC50 ([1]; HCV replicon 1A): 2.1 pM
COC(=O)N[C@H](C(=O)N1CCC[C@H]1c1ncc(-c2cc(F)c3c(c2)OC(c2cc4nccnc4s2)n2c-3cc3cc(-c4cnc([C@@H]5CCCN5C(=O)[C@@H](NC(=O)OC)C(C)C)[nH]4)ccc32)[nH]1)C(C)C (single isomer, unassigned) [Compound 47]		1.54	0.77			IC50 ([1]; Hepatitis C virus, replicon 1A): 1.6 pM
COC(=O)N[C@H](C(=O)N1C[C@H](F)C[C@H]1c1ncc(-c2ccc3c(c2)OC(c2cc(C)c(C)s2)n2c-3cc3cc(-c4c[nH]c([C@@H]5C[C@@H](F)CN5C(=O)[C@@H](NC(=O)OC)C5CCOCC5)n4)ccc32)[nH]1)C(C)C (mixture of isomers) [Compound 725]						IC50 [1, 5]: 35 pM; IC50 ([2]; Hepatitis C virus, read-out: 1A Y93H IC50, HCV replicon 1A Y93H): 0.058 nM; IC50 ([3]; Hepatitis C virus, read-out: 2B IC50, HCV replicon 2B): 0.76 nM
CC[C@@H]1CC(C(NC(=O)OC)C(=O)N2CCC[C@H]2c2ncc(-c3ccc4c(c3)cc3n4C(c4ccc(C5CC5)s4)Oc4cc(-c5cnc([C@@H]6CCCN6C(=O)[C@@H](NC(=O)OC)C(C)C)[nH]5)cc(F)c4-3)[nH]2)C[C@H](CC)O1 (single isomer, unassigned) [Compound 287]	8.2	0.074	0.49			
COC(=O)N[C@H](C(=O)N1CCC[C@H]1c1ncc(-c2cc(F)c3c(c2)OC(c2cc4c(s2)CCC4)n2c-3cc3cc(-c4cnc([C@@H]5C[C@H]6C[C@H]6N5C(=O)[C@@H](NC(=O)OC)C5C[C@@H](C)O[C@@H](C)C5)[nH]4)ccc32)[nH]1)C(C)C (single isomer, unassigned) [Compound 552]				0.839	0.409	IC50 ([1]; HCV replicon 1A): 9.78 pM
CCc1ccc(C2Oc3cc(-c4cnc([C@@H]5CCCN5C(=O)[C@@H](NC(=O)OC)C(C)C)[nH]4)cc(F)c3-c3cc4cc(-c5cnc([C@@H]6CCCN6C(=O)C(NC(=O)OC)C6CCOC(C)(C)C6)[nH]5)ccc4n32)s1 (single isomer, unassigned) [Compound 146]	1.2	0.57	0.38			
COC(=O)N[C@H](C(=O)N1C[C@H](F)C[C@H]1c1ncc(-c2ccc3c(c2)OC(c2ccc(C)s2)n2c-3cc3cc(-c4cnc([C@@H]5C[C@H]6C[C@H]6N5C(=O)[C@@H](NC(=O)OC)C(C)C)[nH]4)ccc32)[nH]1)C(C)C (single isomer, unassigned) [Compound 707]				0.034	0.84	IC50 ([1]; HCV replicon 1A): 6.4 pM
CCc1ccc(C2Oc3cc(-c4cnc([C@@H]5CCCN5C(=O)[C@@H](NC(=O)OC)C(C)C)[nH]4)cc(F)c3-c3cc4cc(-c5cnc([C@@H]6CCCN6C(=O)C(NC(=O)OC)C6CCOC(C)(C)C6)[nH]5)ccc4n32)s1 (single isomer, unassigned) [Compound 147]	2.5	0.43	0.62			
COC(=O)NC(C(=O)N1CCC[C@H]1c1ncc(-c2ccc3c(c2)cc2n3C(c3ccc(C(C)C)s3)Oc3cc(-c4cnc([C@@H]5CCCN5C(=O)[C@@H](NC(=O)OC)C(C)C)[nH]4)cc(F)c3-2)[nH]1)C1CCOC(C)(C)C1 (single isomer, unassigned) [Compound 237]	1.2	0.21	0.4			
COC(=O)N[C@H](C(=O)N1CCC[C@H]1c1ncc(-c2cc(F)c3c(c2)OC(c2ccsc2)n2c-3cc3cc(-c4cnc([C@@H]5CCCN5C(=O)[C@@H](NC(=O)OC)C(C)C)[nH]4)ccc32)[nH]1)C(C)C (single isomer, unassigned) [Compound 318]	1.9	5.9	6.87			
CCc1ccc(C2Oc3cc(-c4cnc([C@@H]5CCCN5C(=O)C(NC(=O)OC)C5C[C@@H](C)O[C@@H](C)C5)[nH]4)cc(F)c3-c3cc4cc(-c5cnc([C@@H]6CCCN6C(=O)[C@@H](NC(=O)OC)C(C)C)[nH]5)ccc4n32)s1 (single isomer, unassigned) [Compound 154]	1.7	0.36	0.55			
COC(=O)NC(C(=O)N1[C@@H]2C[C@@H]2C[C@H]1c1ncc(-c2ccc3c(c2)cc2n3C(c3ccc(C(F)F)s3)Oc3cc(-c4cnc([C@@H]5CCCN5C(=O)[C@@H](NC(=O)OC)C(C)C)[nH]4)cc(F)c3-2)[nH]1)C1CCOC(C)(C)C1 (single isomer, unassigned) [Compound 414]				0.134	0.457	IC50 [1, 5]: 2.2 pM
COC(=O)N[C@H](C(=O)N1C[C@H](F)C[C@H]1c1ncc(-c2ccc3c(c2)cc2n3C(c3cc4ccccc4s3)Oc3cc(-c4cnc([C@@H]5CCCN5C(=O)[C@@H](NC(=O)OC)C5CCOCC5)[nH]4)ccc3-2)[nH]1)C(C)C (single isomer, unassigned) [Compound 623]				0.0213	0.345	IC50 [1, 5]: 2.4 pM
